Assays:
[1] = system: subject with dental phobia; test: Routine dental checkup (cleaning and examination) of a subject with dental phobia after proglumide (Example 1); format: in vivo, human
Description: Proglumide was obtained from commercial suppliers and/or pharmacies, and loaded into capsules. A subject with dental phobia, who had not been to a dentist in many years, agreed to undergo a routine dental checkup visit (cleaning and examination), and to take proglumide prior to the dental visit. […] Furthermore, the subject was willing to return for a follow-up visit within one week in order to replace an aged filling, a procedure that was not deemed urgent and easily could have been delayed.

[2] = system: subject with dental phobia; test: Replacement of an aged metal filling in the same subject after proglumide (Example 2); format: in vivo, human; details: capsule 200 mg proglumide 90 minutes prior; local anesthetic given by dentist
Experimental: Proglumide was obtained from commercial suppliers and/or pharmacies, and loaded into capsules. The same subject as in Example 1 returned to the dentist five days after the dental checkup of Example 1 in order to replace an aged metal filling. Again, proglumide was administered to the subject in advance of the appointment. […] The dentist administered a local anesthetic (e.g., lidocaine) painkiller as part of the procedure for replacing the filling. The residual discomfort following the procedure, including after the numbness wore off, was mild.

[3] = system: human patients; details: cited from earlier work
[4] = system: rats; details: opiate-naïve and morphine-tolerant rats (Watkins 1985); cited from earlier work
[5] = cited from earlier work
[6] = chronic administration (Kellstein 1990); cited from earlier work

## CCCN(CCC)C(=O)C(CCC(=O)O)NC(=O)c1ccccc1 (stereo not shown) [proglumide, Proglumide]
[1]; capsule 100 mg proglumide ninety minutes prior to dental appointment
  Total discomfort: low enough that the subject would be willing to return to a regular dental checkup schedule
[1]; capsule 100 mg proglumide ninety minutes prior to dental appointment, relative to previous dental visits without proglumide
  Subject-reported pain during calculus removal: substantially reduced
[1]; capsule 100 mg proglumide ninety minutes prior, relative to after previous dental checkups
  Post-checkup pain (tender gums, sensitivity while chewing): significantly reduced
[2]
  Residual discomfort following the procedure, including after the numbness wore off: mild
[3]; cancer pain management (Bernstein 1998) and post-operative patients (Lehmann 1989)
  Augmentation of morphine analgesia, treatment vs control groups: no difference
[3]; human patients with chronic pain (McCleane 1998)
  Analgesic efficacy of morphine: enhances
[4]
  Morphine analgesia: potentiates
[5]; Benedetti 1995
  Placebo analgesia: enhance
[5]; Benedetti 2006
  Nocebo hyperalgesia: block
[6]
  Efficacy as a long-term adjunct to opiate treatment for chronic pain: ineffective
